From patent US20140343000A1 (priority 2011, published 2014)

tested on: recombinant NL4-3 virus (Renilla luciferase in nef, Gag P373S; NLRluc) in MT-2 cells; experiment: whole plant or invertebrate; type: cell-based, HIV; conditions: Renilla, NL43, luciferase activity in cells infected for 4-5 days with NLRluc recombinants, serial dilutions of inhibitor; class symbols (key in Table 1); read-out: EC50
Description: MT-2 cells and 293T cells were obtained from the NIH AIDS Research and Reference Reagent Program. MT-2 cells were propagated in RPMI 1640 media supplemented with 10% heat inactivated fetal bovine serum, […]. The 293T cells were propagated in DMEM media supplemented with 10% heat inactivated fetal bovine serum (FBS), 100 units/ml penicillin G and 100 μg/ml streptomycin. The proviral DNA clone of NL4-3 was obtained from the NIH AIDS Research and Reference Reagent Program. A recombinant NL4-3 virus, in which a section of the nef gene from NL4-3 was replaced with the Renilla luciferase gene, was used as a reference virus. In addition, residue Gag P373 was converted to P373S. Briefly, the recombinant virus was prepared by transfection of the altered proviral clone of NL4-3. Transfections were performed in 293T cells using LipofectAMINE PLUS from Invitrogen (Carlsbad, Calif.), according to manufacturer's instruction. The virus was titered in MT-2 cells using luciferase enzyme activity as a marker. Luciferase was quantitated using the Dual Luciferase kit from Promega (Madison, Wis.), with modifications to the manufacturer's protocol. The diluted Passive Lysis solution was pre-mixed with the re-suspended Luciferase Assay Reagent and the re-suspended Stop & Glo Substrate (2:1:1 ratio). Fifty (50) μL of the mixture was added to each aspirated well on assay plates and luciferase activity was measured immediately on a Wallac TriLux (Perkin-Elmer). Antiviral activities of inhibitors toward the recombinant virus were quantified by measuring luciferase activity in cells infected for 4-5 days with NLRluc recombinants in the presence serial dilutions of the inhibitor. Table 1 is the key for the data in Table 2.

C=C(C)[C@@H]1CC[C@]2(NC(=O)N3CCN(C(=O)OC(C)(C)C)CC3CO)CC[C@]3(C)[C@H](CC[C@@H]4[C@@]5(C)CC=C(c6ccc(C(=O)O)cc6)C(C)(C)[C@@H]5CC[C@]43C)[C@@H]12 (mixture of isomers) [Example 61, 4-((1R,3aS,5aR,5bR,7aR,11aS,11bR,13aR,13bR)-3a-(4-(tert-butoxycarbonyl)-2-(hydroxymethyl)piperazine-1-carboxamido)-5a,5b,8,8,11a-pentamethyl-1-(prop-1-en-2-yl)-2,3,3a,4,5,5a,5b,6,7,7a,8,11,11a,11b,12,13,13a,13b-octadecahydro-1H-cyclopenta[a]chrysen-9-yl)benzoic acid] and C=C(C)[C@@H]1CC[C@]2(NC(=O)N3CCN(C(=O)OC(C)(C)C)CC3C(=O)O)CC[C@]3(C)[C@H](CC[C@@H]4[C@@]5(C)CC=C(c6ccc(C(=O)O)cc6)C(C)(C)[C@@H]5CC[C@]43C)[C@@H]12 (mixture of isomers) [Example 62, 4-(tert-butoxycarbonyl)-1-((1R,3aS,5aR,5bR,7aR,11aS,11bR,13aR,13bR)-9-(4-carboxyphenyl)-5a,5b,8,8,11a-pentamethyl-1-(prop-1-en-2-yl)-2,3,3a,4,5,5a,5b,6,7,7a,8,11,11a,11b,12,13,13a,13b-octadecahydro-1H-cyclopenta[a]chrysen-3a-ylcarbamoyl)piperazine-2-carboxylic acid] cannot be ordered by EC50: < 100 nM for the first, < 100 nM for the second.

C=C(C)[C@@H]1CC[C@]2(NC(=O)N3CCNC(C(=O)O)C3)CC[C@]3(C)[C@H](CC[C@@H]4[C@@]5(C)CC=C(c6ccc(C(=O)O)cc6)C(C)(C)[C@@H]5CC[C@]43C)[C@@H]12 (mixture of isomers) [Example 63, 4-((1R,3aS,5aR,5bR,7aR,11aS,11bR,13aR,13bR)-9-(4-carboxyphenyl)-5a,5b,8,8,11a-pentamethyl-1-(prop-1-en-2-yl)-2,3,3a,4,5,5a,5b,6,7,7a,8,11,11a,11b,12,13,13a,13b-octadecahydro-1H-cyclopenta[a]chrysen-3a-ylcarbamoyl)piperazine-2-carboxylic acid] and C=C(C)[C@@H]1CC[C@]2(NC(=O)N3CCNCC(O)C3)CC[C@]3(C)[C@H](CC[C@@H]4[C@@]5(C)CC=C(c6ccc(C(=O)O)cc6)C(C)(C)[C@@H]5CC[C@]43C)[C@@H]12 (mixture of isomers) [Example 64, 4-((1R,3aS,5aR,5bR,7aR,11aS,11bR,13aR,13bR)-3a-(6-hydroxy-1,4-diazepane-1-carboxamido)-5a,5b,8,8,11a-pentamethyl-1-(prop-1-en-2-yl)-2,3,3a,4,5,5a,5b,6,7,7a,8,11,11a,11b,12,13,13a,13b-octadecahydro-1H-cyclopenta[a]chrysen-9-yl)benzoic acid] cannot be ordered by EC50: < 100 nM for the first, < 100 nM for the second.

C=C(C)[C@@H]1CC[C@]2(NC(=O)C(c3ccccc3)N3CCS(=O)(=O)CC3)CC[C@]3(C)[C@H](CC[C@@H]4[C@@]5(C)CC=C(c6ccc(C(=O)O)cc6)C(C)(C)[C@@H]5CC[C@]43C)[C@@H]12 (single isomer, unassigned) [Example 91] and C=C(C)[C@@H]1CC[C@]2(NC(=O)C(C(C)C)N3CCS(=O)(=O)CC3)CC[C@]3(C)[C@H](CC[C@@H]4[C@@]5(C)CC=C(c6ccc(C(=O)O)cc6)C(C)(C)[C@@H]5CC[C@]43C)[C@@H]12 (single isomer, unassigned) [Example 110] cannot be ordered by EC50: < 100 nM for the first, < 100 nM for the second.

Going from C=C(C)[C@@H]1CC[C@]2(N)CC[C@]3(C)[C@H](CC[C@@H]4[C@@]5(C)CC=C(c6ccc(C(=O)O)cc6)C(C)(C)[C@@H]5CC[C@]43C)[C@@H]12 [Example 1, 4-((1R,3aS,5aR,5bR,7aR,11aS,11bR,13aR,13bR)-3a-amino-5a,5b,8,8,11a-pentamethyl-1-(prop-1-en-2-yl)-2,3,3a,4,5,5a,5b,6,7,7a,8,11,11a,11b,12,13,13a,13b-octadecahydro-1H-cyclopenta[a]chrysen-9-yl)benzoic acid] to C=C(C)[C@@H]1CC[C@]2(NC(=O)NC3(C(=O)O)CC3)CC[C@]3(C)[C@H](CC[C@@H]4[C@@]5(C)CC=C(c6ccc(C(=O)O)cc6)C(C)(C)[C@@H]5CC[C@]43C)[C@@H]12 [Example 4, 4-((1R,3aS,5aR,5bR,7aR,11aS,11bR,13aR,13bR)-3a-(3-(1-carboxycyclopropyl)ureido)-5a,5b,8,8,11a-pentamethyl-1-(prop-1-en-2-yl)-2,3,3a,4,5,5a,5b,6,7,7a,8,11,11a,11b,12,13,13a,13b-octadecahydro-1H-cyclopenta[a]chrysen-9-yl)benzoic acid], the EC50 rises from < 100 nM to > 100 nM. The first is the more potent here.

C=C(C)[C@@H]1CC[C@]2(NC(=O)NCC3(NC(=O)OC(C)(C)C)CC3)CC[C@]3(C)[C@H](CC[C@@H]4[C@@]5(C)CC=C(c6ccc(C(=O)O)cc6)C(C)(C)[C@@H]5CC[C@]43C)[C@@H]12 [Example 2] and C=C(C)[C@@H]1CC[C@]2(NC(=O)NCC(C)(C)N3CCOCC3)CC[C@]3(C)[C@H](CC[C@@H]4[C@@]5(C)CC=C(c6ccc(C(=O)O)cc6)C(C)(C)[C@@H]5CC[C@]43C)[C@@H]12 [Example 6, 4-((1R,3aS,5aR,5bR,7aR,11aS,11bR,13aR,13bR)-5a,5b,8,8,11a-pentamethyl-3a-(3-(2-methyl-2-morpholinopropyl)ureido)-1-(prop-1-en-2-yl)-2,3,3a,4,5,5a,5b,6,7,7a,8,11,11a,11b,12,13,13a,13b-octadecahydro-1H-cyclopenta[a]chrysen-9-yl)benzoic acid] cannot be ordered by EC50: < 100 nM for the first, < 100 nM for the second.

C=C(C)[C@@H]1CC[C@]2(NC(=O)NC(C)(C)CN3CCOCC3)CC[C@]3(C)[C@H](CC[C@@H]4[C@@]5(C)CC=C(c6ccc(C(=O)O)cc6)C(C)(C)[C@@H]5CC[C@]43C)[C@@H]12 [Example 5, 4-((1R,3aS,5aR,5bR,7aR,11aS,11bR,13aR,13bR)-5a,5b,8,8,11a-pentamethyl-3a-(3-(2-methyl-1-morpholinopropan-2-yl)ureido)-1-(prop-1-en-2-yl)-2,3,3a,4,5,5a,5b,6,7,7a,8,11,11a,11b,12,13,13a,13b-octadecahydro-1H-cyclopenta[a]chrysen-9-yl)benzoic acid] was tested, and the EC50 was < 100 nM.

same assay, conditions: Renilla, NL43, luciferase activity in cells infected for 4-5 days with NLRluc recombinants, serial dilutions of inhibitor; numeric values; read-out: EC50

C=C(C)[C@@H]1CC[C@]2(NC(=O)NCCN(C)C)CC[C@]3(C)[C@H](CC[C@@H]4[C@@]5(C)CC=C(c6ccc(C(=O)O)cc6)C(C)(C)[C@@H]5CC[C@]43C)[C@@H]12 [Example 3, 4-((1R,3aS,5aR,5bR,7aR,11aS,11bR,13aR,13bR)-3a-(3-(2-(dimethylamino)ethyl)ureido)-5a,5b,8,8,11a-pentamethyl-1-(prop-1-en-2-yl)-2,3,3a,4,5,5a,5b,6,7,7a,8,11,11a,11b,12,13,13a,13b-octadecahydro-1H-cyclopenta[a]chrysen-9-yl)benzoic acid] showed an EC50 of 4 nM.

same assay, conditions: luciferase activity in cells infected for 4-5 days with NLRluc recombinants, serial dilutions of inhibitor; class symbols (key in Table 1); read-out: EC50

C=C(C)[C@@H]1CC[C@]2(NC(=O)C(c3ccccc3)N3CCS(=O)(=O)CC3)CC[C@]3(C)[C@H](CC[C@@H]4[C@@]5(C)CC=C(c6ccc(C(=O)O)cc6)C(C)(C)[C@@H]5CC[C@]43C)[C@@H]12 (single isomer, unassigned) [Example 92] and C=C(C)[C@@H]1CC[C@]2(NC(=O)C(C(C)C)N3CCS(=O)(=O)CC3)CC[C@]3(C)[C@H](CC[C@@H]4[C@@]5(C)CC=C(c6ccc(C(=O)O)cc6)C(C)(C)[C@@H]5CC[C@]43C)[C@@H]12 (single isomer, unassigned) [Example 111] cannot be ordered by EC50: < 100 nM for the first, < 100 nM for the second.
